Results published in ChEMBL document CHEMBL3232804, “Synthesis and evaluation of new diaryl ether and quinoline hybrids as potential antiplasmodial and antimicrobial agents” (Bioorg Med Chem Lett, 2014).
pIC50: −log10 of the molar value. Values after ≈ are worked out from the molar mass of the structure shown.

How the values were obtained:
[1] = test system: Plasmodium falciparum; experiment: Antiplasmodial activity against chloroquine-resistant Plasmodium falciparum K1 infected after 72 hrs by Malaria SYBR Green I-staining based fluorescence assay; format: functional, organism-based; conditions: K1, 72 h
[2] = test system: Aspergillus fumigatus; experiment: Antifungal activity against Aspergillus fumigatus clinical isolate after 72 to 96 hrs by standard broth microdilution method; format: functional
[3] = test system: Cryptococcus neoformans; experiment: Antifungal activity against Cryptococcus neoformans clinical isolate after 24 to 48 hrs by standard broth microdilution method; format: functional
[4] = test system: Candida albicans; experiment: Antifungal activity against Candida albicans clinical isolate after 24 to 48 hrs by standard broth microdilution method; format: functional
[5] = test system: Staphylococcus aureus; experiment: Antimicrobial activity against Staphylococcus aureus ATCC 25923 after 24 hrs by standard broth microdilution method; format: functional
[6] = test system: Escherichia coli; experiment: Antimicrobial activity against Escherichia coli ATCC 9637 after 24 hrs by standard broth microdilution method; format: functional
[7] = test system: Plasmodium falciparum; experiment: Antiplasmodial activity against chloroquine-sensitive Plasmodium falciparum 3D7 infected after 72 hrs by Malaria SYBR Green I-staining based fluorescence assay; format: functional, organism-based; conditions: 3D7, 72 h
[8] = test system: Pseudomonas aeruginosa; experiment: Antimicrobial activity against Pseudomonas aeruginosa ATCC BAA-427 after 24 hrs by standard broth microdilution method; format: functional
[9] = test system: Trichophyton mentagrophytes; experiment: Antifungal activity against Trichophyton mentagrophytes clinical isolate after 72 to 96 hrs by standard broth microdilution method; format: functional
[10] = test system: Candida parapsilosis; experiment: Antifungal activity against Candida parapsilosis ATCC […] after 72 to 96 hrs by standard broth microdilution method; format: functional; conditions: Lodderomyces parapsilosis
[11] = test system: Sporothrix schenckii; experiment: Antifungal activity against Sporothrix schenckii clinical isolate after 72 to 96 hrs by standard broth microdilution method; format: functional
[12] = test system: Klebsiella pneumoniae; experiment: Antimicrobial activity against Klebsiella pneumoniae ATCC 27736 after 24 hrs by standard broth microdilution method; format: functional
[13] = Selectivity index, ratio of IC50 for african green monkey Vero cells to IC50 for chloroquine-sensitive Plasmodium falciparum 3D7; format: toxicity, cell-based; conditions: read-out: Ratio IC50

COC(=O)/C(C)=C/c1ccc(Oc2ccccc2N/C(=N/c2ccccc2)NCc2ccccc2)cc1
pIC50 [1]: < 5.92
MIC [2]: > 50 µg/mL
MIC [3]: > 50 µg/mL
MIC [4]: > 50 µg/mL
MIC ([5]; ATCC 25923, 24 h): 25 µg/mL (≈ 50.9 µM)
MIC ([6]; ATCC 9637, 24 h): > 50 µg/mL
pIC50 [7]: < 5.92
MIC ([8]; ATCC BAA-427, 24 h): > 50 µg/mL
MIC [9]: > 50 µg/mL
MIC [10]: > 50 µg/mL
MIC [11]: > 50 µg/mL
MIC ([12]; ATCC 27736, 24 h): 12.5 µg/mL (≈ 25.4 µM)

OC(Cn1cncn1)(Cn1cncn1)c1ccc(F)cc1F [FLUCONAZOLE]
MIC [2]: 2 µg/mL (≈ 6.53 µM)
MIC [3]: 1 µg/mL (≈ 3.27 µM)
MIC [4]: 0.5 µg/mL (≈ 1.63 µM)
MIC [9]: 1 µg/mL (≈ 3.27 µM)
MIC [10]: 1 µg/mL (≈ 3.27 µM)
MIC [11]: 2 µg/mL (≈ 6.53 µM)

COC(=O)/C(C)=C/c1ccc(Oc2ccccc2N/C(=N/c2cccc(Cl)c2)NCc2ccccc2)cc1
pIC50 [1]: < 5.92
MIC [2]: > 50 µg/mL
MIC [3]: > 50 µg/mL
MIC [4]: > 50 µg/mL
MIC ([5]; ATCC 25923, 24 h): > 50 µg/mL
MIC ([6]; ATCC 9637, 24 h): > 50 µg/mL
pIC50 [7]: < 6.10
MIC ([8]; ATCC BAA-427, 24 h): > 50 µg/mL
MIC [9]: > 50 µg/mL
MIC [10]: > 50 µg/mL
MIC [11]: > 50 µg/mL
MIC ([12]; ATCC 27736, 24 h): 12.5 µg/mL (≈ 23.8 µM)

COc1ccc(Oc2ccccc2N/C(=N/c2ccccc2)NCCCNc2ccnc3cc(Cl)ccc23)cc1
MIC [2]: 50 µg/mL (≈ 90.6 µM)
MIC [3]: > 50 µg/mL
MIC [4]: 50 µg/mL (≈ 90.6 µM)
MIC ([5]; ATCC 25923, 24 h): 50 µg/mL (≈ 90.6 µM)
MIC ([6]; ATCC 9637, 24 h): 50 µg/mL (≈ 90.6 µM)
pIC50 [7]: 6.92
MIC ([8]; ATCC BAA-427, 24 h): > 50 µg/mL
MIC [9]: > 50 µg/mL
MIC [10]: 50 µg/mL (≈ 90.6 µM)
MIC [11]: 50 µg/mL (≈ 90.6 µM)
MIC ([12]; ATCC 27736, 24 h): > 50 µg/mL

COc1ccc(Oc2ccccc2N/C(=N/c2ccc(Cl)cc2)NCCNc2ccnc3cc(Cl)ccc23)cc1
pIC50 [1]: 6.48
MIC [3]: 25 µg/mL (≈ 43.7 µM)
selectivity ratio [13]: 172
MIC [4]: 50 µg/mL (≈ 87.3 µM)
MIC ([5]; ATCC 25923, 24 h): 12.5 µg/mL (≈ 21.8 µM)
MIC ([6]; ATCC 9637, 24 h): 50 µg/mL (≈ 87.3 µM)
pIC50 [7]: 6.99
MIC ([8]; ATCC BAA-427, 24 h): > 50 µg/mL
MIC [11]: 12.5 µg/mL (≈ 21.8 µM)
MIC ([12]; ATCC 27736, 24 h): > 50 µg/mL

COc1ccc(Oc2ccccc2N/C(=N/c2ccc(Cl)cc2)NCCCCNc2ccnc3cc(Cl)ccc23)cc1
pIC50 [1]: < 6.10
MIC [3]: 50 µg/mL (≈ 83.3 µM)
selectivity ratio [13]: 62.8
MIC [4]: 50 µg/mL (≈ 83.3 µM)
MIC ([5]; ATCC 25923, 24 h): 50 µg/mL (≈ 83.3 µM)
MIC ([6]; ATCC 9637, 24 h): > 50 µg/mL
pIC50 [7]: 6.91
MIC ([8]; ATCC BAA-427, 24 h): > 50 µg/mL
MIC [11]: 25 µg/mL (≈ 41.6 µM)
MIC ([12]; ATCC 27736, 24 h): > 50 µg/mL

COC(=O)/C(C)=C/c1ccc(Oc2ccccc2N/C(=N/c2ccccc2)NCCNc2ccnc3cc(Cl)ccc23)cc1
pIC50 [1]: 6.77
MIC [2]: > 50 µg/mL
MIC [3]: > 50 µg/mL
MIC [4]: > 50 µg/mL
MIC ([5]; ATCC 25923, 24 h): > 50 µg/mL
MIC ([6]; ATCC 9637, 24 h): > 50 µg/mL
pIC50 [7]: < 6.10
MIC ([8]; ATCC BAA-427, 24 h): > 50 µg/mL
MIC [9]: > 50 µg/mL
MIC [10]: > 50 µg/mL
MIC [11]: > 50 µg/mL
MIC ([12]; ATCC 27736, 24 h): > 50 µg/mL

CCn1cc(C(=O)O)c(=O)c2cc(F)c(N3CCNCC3)cc21 [NORFLOXACIN]
MIC ([5]; ATCC 25923, 24 h): 0.78 µg/mL (≈ 2.44 µM)
MIC ([6]; ATCC 9637, 24 h): 0.36 µg/mL (≈ 1.13 µM)
MIC ([8]; ATCC BAA-427, 24 h): 0.3 µg/mL (≈ 0.939 µM)
MIC ([12]; ATCC 27736, 24 h): 0.36 µg/mL (≈ 1.13 µM)

COc1ccc(Oc2ccc(N/C(=N/c3ccccc3)NCCNc3ccnc4cc(Cl)ccc34)cc2)cc1
pIC50 [1]: 6.20
MIC [2]: 25 µg/mL (≈ 46.5 µM)
MIC [3]: 50 µg/mL (≈ 92.9 µM)
MIC [4]: 25 µg/mL (≈ 46.5 µM)
MIC ([5]; ATCC 25923, 24 h): 6.25 µg/mL (≈ 11.6 µM)
MIC ([6]; ATCC 9637, 24 h): 6.25 µg/mL (≈ 11.6 µM)
pIC50 [7]: < 6.05
MIC ([8]; ATCC BAA-427, 24 h): > 50 µg/mL
MIC [9]: 12.5 µg/mL (≈ 23.2 µM)
MIC [10]: 25 µg/mL (≈ 46.5 µM)
MIC [11]: 12.5 µg/mL (≈ 23.2 µM)
MIC ([12]; ATCC 27736, 24 h): 12.5 µg/mL (≈ 23.2 µM)

C[C@@H]1[C@H](O)[C@@H](C)/C=C/C=C/C=C/C=C/C=C/C=C/C=C/[C@H](O[C@@H]2O[C@H](C)[C@@H](O)[C@H](N)[C@@H]2O)C[C@@H]2O[C@](O)(C[C@@H](O)C[C@@H](O)[C@H](O)CC[C@@H](O)C[C@@H](O)CC(=O)O[C@H]1C)C[C@H](O)[C@H]2C(=O)O [AMPHOTERICIN B]
MIC [2]: 0.5 µg/mL (≈ 0.541 µM)
MIC [3]: 0.06 µg/mL (≈ 0.0649 µM)
MIC [4]: 0.12 µg/mL (≈ 0.13 µM)
MIC [9]: 0.12 µg/mL (≈ 0.13 µM)
MIC [10]: 0.12 µg/mL (≈ 0.13 µM)
MIC [11]: 0.12 µg/mL (≈ 0.13 µM)

COc1ccc(Oc2ccccc2N/C(=N/c2ccccc2)NCCCCNc2ccnc3cc(Cl)ccc23)cc1
pIC50 [1]: < 6.00
MIC [2]: 50 µg/mL (≈ 88.3 µM)
MIC [3]: > 50 µg/mL
MIC [4]: > 50 µg/mL
MIC ([5]; ATCC 25923, 24 h): > 50 µg/mL
MIC ([6]; ATCC 9637, 24 h): > 50 µg/mL
pIC50 [7]: 6.96
MIC ([8]; ATCC BAA-427, 24 h): > 50 µg/mL
MIC [9]: > 50 µg/mL
MIC [10]: > 50 µg/mL
MIC [11]: 50 µg/mL (≈ 88.3 µM)
MIC ([12]; ATCC 27736, 24 h): > 50 µg/mL

GENTAMICIN SULFATE
MIC [5]: 1.56 µg/mL
MIC [6]: 1.56 µg/mL
MIC [8]: 0.39 µg/mL
MIC [12]: 1.56 µg/mL

Clc1ccc(/N=C(\NCCCNc2ccnc3cc(Cl)ccc23)Nc2ccc(Oc3cc(Cl)ccc3Cl)cc2)cc1
pIC50 [1]: < 6.10
MIC [2]: > 50 µg/mL
MIC [3]: > 50 µg/mL
MIC [4]: > 50 µg/mL
MIC ([5]; ATCC 25923, 24 h): > 50 µg/mL
MIC ([6]; ATCC 9637, 24 h): > 50 µg/mL
pIC50 [7]: < 6.10
MIC ([8]; ATCC BAA-427, 24 h): > 50 µg/mL
MIC [9]: 50 µg/mL (≈ 80 µM)
MIC [10]: > 50 µg/mL
MIC [11]: 50 µg/mL (≈ 80 µM)
MIC ([12]; ATCC 27736, 24 h): > 50 µg/mL
